The structures appear in SMILES notation.

Assay [1] concerns the target T1, human TLR4 (Homo sapiens, UniProt O00206+Q9Y6Y9).
T1 construct: host or cells: HEK-Blue hTLR4 (HEK293-derived)
Nature of the assay: HEK-Blue hTLR4 SEAP reporter assay (agonist activity, QUANTI-Blue). The format is cell-based. As to conditions: HEK-Blue hTLR4 cells, 0.1-25 μM, 18 hours, normalized to LPS. An excerpt:
HEK-BIue™ hTLR4 and HEK-BIue™ hTLR2 (InvivoGen) are cell lines designed to study the activation of human TLR4 and TLR2 receptors, respectively, by monitoring the activation of transcription factors NF-kB and AP-1. Stimulation with TLR4 ligands (in the case of HEK-Blue hTLR4) or with TLR2 ligands (in the case of HEK-Blue hTLR2) activates NF-kB and AP-1, inducing the production and release of the SEAP reporter gene (phosphatase secreted embryonic alkaline) in the extracellular environment. The analysis of the reporter gene was performed using the QUANTI-Blue™ colorimetric assay (InvivoGen), a substrate of SEAP, which generates a chromogenic product whose absorbance is read at 630 nm. The agonist activity of the molecules was tested by treating HEK-Blue hTLR4 cells for 18 hours with increasing concentrations of the compounds (0.1-1-10-25 μM) and using MPLA (0.1-1-10 μM) and S-LPS (100 ng/mL) as a reference and positive receptor activation control, respectively. […] The molecules were subsequently tested on the HEK-Blue hTLR2 cell line with the aim of excluding the activation of this receptor. […]
The ability of FP molecules to activate human TLR4 was assessed using HEK-Blue hTLR4 cells. […]
Background: Reporter assays use an easily measured gene product as a stand-in for the process of interest.

The target of assay [2] is T1, human TLR4. Conditions: HEK-Blue hTLR4 cells, Experiment 2 of WO2019/092572; cited from earlier work.
Assay [3] has as its target T1, human TLR4. Nature of the assay: Inhibition of LPS-induced SEAP production in HEK-Blue hTLR4 cells (antagonism). The class given is cell-based.

T1 sequence (O00206 24-839): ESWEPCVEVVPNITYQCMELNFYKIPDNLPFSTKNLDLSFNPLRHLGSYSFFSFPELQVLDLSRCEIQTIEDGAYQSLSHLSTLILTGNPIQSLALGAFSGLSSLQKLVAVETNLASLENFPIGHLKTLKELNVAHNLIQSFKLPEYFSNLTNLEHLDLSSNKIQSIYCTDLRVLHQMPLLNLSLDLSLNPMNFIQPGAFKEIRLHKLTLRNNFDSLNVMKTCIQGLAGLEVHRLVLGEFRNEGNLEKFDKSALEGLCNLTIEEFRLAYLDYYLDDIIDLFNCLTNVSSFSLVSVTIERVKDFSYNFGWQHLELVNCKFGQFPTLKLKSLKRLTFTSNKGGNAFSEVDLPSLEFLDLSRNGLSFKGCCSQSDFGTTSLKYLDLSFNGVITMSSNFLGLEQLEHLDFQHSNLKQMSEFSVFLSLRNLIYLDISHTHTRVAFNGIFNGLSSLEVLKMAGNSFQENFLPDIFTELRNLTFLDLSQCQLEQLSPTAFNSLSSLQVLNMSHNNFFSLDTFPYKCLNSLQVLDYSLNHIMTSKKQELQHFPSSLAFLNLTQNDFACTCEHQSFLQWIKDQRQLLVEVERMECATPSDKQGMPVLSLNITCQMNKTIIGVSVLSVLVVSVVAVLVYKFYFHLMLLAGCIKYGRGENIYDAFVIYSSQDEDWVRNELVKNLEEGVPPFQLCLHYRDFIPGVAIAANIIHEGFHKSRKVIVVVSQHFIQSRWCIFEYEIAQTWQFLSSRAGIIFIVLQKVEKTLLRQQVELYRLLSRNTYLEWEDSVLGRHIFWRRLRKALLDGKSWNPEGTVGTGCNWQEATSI
T1 sequence (Q9Y6Y9 17-160 limits assumed): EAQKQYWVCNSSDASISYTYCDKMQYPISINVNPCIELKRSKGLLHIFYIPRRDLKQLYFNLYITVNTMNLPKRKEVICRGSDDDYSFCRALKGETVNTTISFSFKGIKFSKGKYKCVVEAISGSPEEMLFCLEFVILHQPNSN

As for `CCCCCCCCCCCCCC(=O)NC1[C@H](OP(=O)(O)O)OC(COP(=O)(O)O)[C@@H](OC(=O)CCCCCCCCCCCCC)[C@@H]1OC(=O)CCCCCCCCCCCCC` (stereo partly drawn) [FP111], the “activation of TLR4 (SEAP release, NF-kB and AP-1)” value at human TLR4 [1] is “inactive”. In addition, the TLR4 agonist activity result at human TLR4 [2] is “completely inactive”. Besides, the “inhibition of LPS-induced SEAP production (TLR4 antagonistic activity)” value against human TLR4 [3] is recorded as “did not inhibit LPS-induced SEAP production”.

The values above are taken from patent US20240299431A1, “NEW SYNTHETIC AGONISTS OF TLR4 RECEPTOR” (UNIVERSITÀ DEGLI STUDI DI MILANO - BICOCCA, priority 2021, published 2024).
